Values of other authors in the CATMoS acute toxicity set (Mansouri et al. 2021).
Several values for one entry are separate records, joined by “and”; a condition that tells them apart may be missing. Identical values can stand only once.

Assay: rat acute oral toxicity
Details: in vivo

SMILES	LD50
COC(=O)C(C(C)=O)C(C)=O	1700 mg/kg
Cc1nc2n(c(=O)c1CCN1CCC(c3noc4cc(F)ccc34)CC1)CCCC2	56.6 mg/kg
CCCCCC[C@H]1C(=O)O[C@H](C)[C@H](NC(=O)c2cccc(NC=O)c2O)C(=O)O[C@@H](C)[C@@H]1OC(=O)CC(C)C	1470 mg/kg
CNC(=O)CSP(=O)(OC)SC (configuration not stated)	100 mg/kg
CCOP(=O)(OCC)C(SCC)(Sc1ccccc1)P(=O)(OCC)OCC	24 mg/kg
O=C(O)c1c(Cl)ccc2cc(Cl)cnc12	2190 mg/kg
C=CC(=O)OCC(C)O (configuration not stated)	250 mg/kg
CCC(C)c1cnc2nc(N)nc(N)c2c1C (configuration not stated)	100 mg/kg
CNc1snc2ccccc12	400 mg/kg
NC(=O)CCCCC1CCSS1 (configuration not stated)	1980 mg/kg
CC=C(C)C(=O)N1CCCc2cc(C)ccc21	2200 mg/kg
COc1ccc2c3c1O[C@H]1[C@@H](O)C=C[C@H]4[C@@H](C2)N(C)CC[C@@]341	85 mg/kg
CN(C)c1ccc(C(=N)c2ccc(N(C)C)cc2)cc1	3000 mg/kg
O=C1CCc2cc(C(=O)CCCN3CC=C(c4ccc(Cl)cc4)CC3)ccc2N1	500 mg/kg
CC1C(=NOC(=O)N(C)SC(Cl)(Cl)Cl)SCC(=O)N1C (configuration not stated)	3.54 mg/kg
Cc1ccccn1	790 mg/kg
CCOC(=O)c1ccccc1	2100 mg/kg
CCN(CC)c1ccc(-c2nc(=O)n(C)nc2-c2ccc(N(CC)CC)cc2)cc1	650 mg/kg
Cc1cccnc1N	100 mg/kg
CC(=O)N1N=C(c2ccc(N)cc2)c2cc3c(cc2CC1C)OCO3 (configuration not stated)	200 mg/kg
CC(CCc1ccc(O)cc1)NCCc1ccc(O)c(O)c1 (configuration not stated)	2300 mg/kg
CCCCOC(=O)C(Cl)(Cl)C(Cl)=C(Cl)Cl	2090 mg/kg
CCOC(=O)COP(=S)(OCC)OCC	1000 mg/kg
C[C@H]1CC[C@@H]2[C@@H](C)[C@H]3[C@H](C[C@H]4[C@@H]5CC=C6CC(O[C@@H]7O[C@H](CO)[C@H](O)[C@H](O[C@@H]8O[C@H](CO)[C@@H](O)[C@H](O)[C@H]8O)[C@H]7O[C@H]7O[C@@H](C)[C@H](O)[C@@H](O)[C@H]7O)CC[C@]6(C)[C@H]5CC[C@]34C)N2C1 (some centres not stated)	590 mg/kg

SMILES	LD50
CCO/N=C(\OC(=O)c1ccccc1)c1c(OC)ccc(Cl)c1OC	15000 mg/kg
CCC1(C)Oc2cccc(OC(=O)NC)c2O1 (configuration not stated)	25 mg/kg
O=C1CCC(c2ccc(-n3ccnc3)cc2)=NN1	125 mg/kg
O=NN(c1cccc(C(F)(F)F)c1)c1ccccc1C(=O)O	900 mg/kg
CCCCCCCCCCCCCC[N+](C)(C)Cc1ccccc1	426 mg/kg
CC1(C)S[C@@H]2[C@H](NC(=O)COc3ccc(Cl)c(Cl)c3)C(=O)N2[C@H]1C(=O)O	2500 mg/kg
COC(=O)CC(SP(=S)(OC)OC)C(=O)OC (configuration not stated)	1020 mg/kg
COc1ccccc1C1C(Cl)C(=O)N1c1ccccc1C(=O)O (configuration not stated)	2400 mg/kg
Cc1cc(Cl)ccc1Cn1nc(C(=O)O)c2ccccc21	4000 mg/kg
O=C1C(O)=C(CC=C(Cl)Cl)C(=O)c2ccccc21	281 mg/kg
CCCCCCCCCCCCCCCC[n+]1ccccc1	200 mg/kg and 475 mg/kg
COP(=O)(OC)SCN1C(=O)c2ccccc2C1=O	50 mg/kg
CCC1CCC(CC)O1 (configuration not stated)	3400 mg/kg
CC(C)c1cccc(C(C)(C)O)c1	6000 mg/kg
CN(C)CCOC(C)(c1ccccc1)c1ccc(Cl)cc1 (configuration not stated)	1000 mg/kg
CCCCN(N=O)C(N)=O	400 mg/kg
CN(CCCn1cnc2c1c(=O)n(C)c(=O)n2C)c1ccccc1	1640 mg/kg
Cc1ccc(Cl)c(OCC(O)CNC(C)(C)C)c1 (configuration not stated)	518 mg/kg
O=C(O)CNCP(=O)(O)O	4870 mg/kg and 10500 mg/kg
O=C(OC1CC2NC(C1)C1OC21)C(CO)c1ccccc1 (configuration not stated)	3020 mg/kg
NC(=O)c1ccc([N+](=O)[O-])cc1	476 mg/kg
O=P(O)(O)CN(CP(=O)(O)O)CP(=O)(O)O	17800 mg/kg
CNCCc1ccccn1	3030 mg/kg and 6110 mg/kg
O=C1C=Cc2cc(Br)ccc2C1=O	3900 mg/kg

SMILES	LD50
OCCNC1CCCCC1	38300 mg/kg
CCCCCCCCCCCCCCCCCCCCCCO	10000 mg/kg
COP(=S)(OC)SCSc1ccc(Cl)cc1	48 mg/kg
CCCCNC(=N)NC(=N)N	320 mg/kg
C=C(CC(=O)c1ccc(-c2ccccc2Cl)cc1)C(=O)O	2400 mg/kg
OCC=CCO	1250 mg/kg
C=C(C)C(=O)OCC1CCC2OC2C1 (configuration not stated)	2500 mg/kg
Cc1ncc([N+](=O)[O-])n1CCO	3000 mg/kg
COc1ccc2c(c1)-c1c(ccc(OC)c1O)CC(CCc1ccccc1)N(C)CC2 (configuration not stated)	500 mg/kg
CC(C)(C)CCCCC(=O)O	2070 mg/kg
S=P(OCCCl)(OCCCl)OCCCl	820 mg/kg
CC(=O)c1ccccc1[N+](=O)[O-]	1600 mg/kg
CN(C)C(=O)Nc1cccc(OC(F)(F)C(F)F)c1	1260 mg/kg
O=C1CNC(=S)N1	420 mg/kg
FC(F)(F)c1ccc(Cl)cc1	13000 mg/kg
Fc1c(Cl)c(Br)c2[nH]c(C(F)(F)F)nc2c1Cl	6.26 mg/kg
c1coc(-c2nc3ccccc3[nH]2)c1	500 mg/kg
C=C1CC(C)C2C3Cc4ccc(O)cc4C2(CCN3CC2CCC2)C1 (configuration not stated)	750 mg/kg
ClC(Cl)(Cl)c1ccc(C(Cl)(Cl)Cl)cc1	3200 mg/kg
CN(c1ccc(Cl)cc1)S(=O)(=O)c1ccc(Cl)cc1	2500 mg/kg
c1ccc([Si]23OCCN(CCO2)CCO3)cc1	1.48 mg/kg
CC(C)NNC(=O)COc1ccc(Cl)cc1	550 mg/kg
Cc1oc(=O)oc1COC(=O)[C@@H]1N2C(=O)[C@@H](NC(=O)[C@H](N)c3ccccc3)[C@H]2SC1(C)C	10000 mg/kg
CCOP(=S)(OCC)SCn1nnc2ccccc2c1=O	7 mg/kg

SMILES	LD50
CCCN(CCC)c1c([N+](=O)[O-])cc(C(F)(F)F)c(N)c1[N+](=O)[O-]	15400 mg/kg
CCC(=O)c1ccc2c(c1)N(CCCN(C)C)c1ccccc1S2	500 mg/kg
Clc1ccc(CSC(Cn2cncn2)=Nc2ccc(Cl)cc2Cl)cc1	2800 mg/kg
O=NN1CCCCCCCC1	566 mg/kg
CCOP(=S)(OCC)SC=C(C)SC	2.5 mg/kg
CCCCOC(=O)CC(SP(=O)(OC)OC)C(=O)OCCCC (configuration not stated)	515 mg/kg
Cc1c(-c2ccccc2)oc2c(C(=O)OCCN3CCCCC3)cccc2c1=O	1440 mg/kg and 1040 mg/kg
CC(C)OP(=S)(OC(C)C)SCn1nc(Cl)ccc1=O	190 mg/kg
Cc1cccc(C#N)c1	3000 mg/kg
NC(=O)OCCCc1ccccc1	1110 mg/kg
CCOC(=O)Nc1ccc2c(c1)N(C(=O)CN(C)C)c1ccccc1CC2	78 mg/kg
CC1(C)Cc2cccc(OC(=O)NCSc3ccc(Cl)cc3)c2O1	25 mg/kg
C[N+](C)([O-])CCC=C1c2ccccc2CCc2ccccc21	1800 mg/kg
O=c1[nH]nc2n1-c1cc([N+](=O)[O-])cc([N+](=O)[O-])c1OC2	3690 mg/kg
CC(C)OC(=O)c1cncc(C(=O)OC(C)C)c1	5230 mg/kg
Cc1cn[nH]c1	534 mg/kg
CCOc1ccccc1N1CCN(CC=Cc2ccc3c(c2)CCC(=O)N3)CC1	500 mg/kg
CCCCC(CC)COC(CBr)c1cccc(Cl)c1 (configuration not stated)	250 mg/kg
OCCN(CCO)c1ccccc1	980 mg/kg
CCCCc1c(C)nc(NCC)nc1O	4000 mg/kg
COC(=O)/C(C)=C/OP(=S)(OC)OC	678 mg/kg
O=C(NP(=O)(N1CC1)N1CC1)c1ccccc1	50 mg/kg
COP(=S)(OC)SCSc1cc(Cl)cc(Cl)c1	443 mg/kg
CC[N+](C)(CC)CCOC(=O)C(O)(c1ccccc1)C1CCCCC1 (configuration not stated)	995 mg/kg

SMILES	LD50
CCCCSC(=O)Oc1c(C(C)CC)cc([N+](=O)[O-])cc1[N+](=O)[O-] (configuration not stated)	147 mg/kg
CN=NNc1ccc(I)cc1	499 mg/kg
Cc1ccc(C(=O)c2ccc(CC(=O)N3CCN(C)CC3)n2C)cc1	1000 mg/kg
COC(C)=O	6480 mg/kg
CN1CCN(CCCCOc2ccccc2C=Cc2ccccc2)CC1	2300 mg/kg
CCCCCOC(C[n+]1ccccc1)c1ccc(C2CCCC2)cc1 (configuration not stated)	250 mg/kg
COP(=O)(OC)Oc1cc(C)n(C)c(=O)c1	2.91 mg/kg
O=[N+]([O-])c1ccc(OP(=O)(OCCCl)OCCCl)cc1	37 mg/kg
BrCC(Br)C1CCC(Br)C(Br)C1 (configuration not stated)	3220 mg/kg
CC(C)/N=C(\N)NC(C)C	2880 mg/kg
CCOC(=O)OC(C)OC(=O)[C@@H]1N2C(=O)[C@@H](NC(=O)[C@H](N)c3ccccc3)[C@H]2SC1(C)C (some centres not stated)	10000 mg/kg
Cc1cccc(N2CC(CO)OC2=O)c1 (configuration not stated)	1220 mg/kg
OC[C@@H](O)[C@@H](O)[C@H](O)[C@@H](O)CO	15900 mg/kg
OC(CCCN1CCCCC1)(c1ccccc1)c1ccccc1	515 mg/kg
CCCCCCCCCC=CC(=O)OC(=O)C=CCCCCCCCCC	3800 mg/kg
CC(C)CNC(=O)CF	42 mg/kg
C[Si]1(C)N[Si](C)(C)N[Si](C)(C)N[Si](C)(C)N1	100 mg/kg
CCOP(=O)(NC(C)C)SCC(=O)NCOC (configuration not stated)	100 mg/kg
CC(C#N)N1CCOCC1 (configuration not stated)	87 mg/kg
CCCC(Cc1ccccc1)N1CCCC1 (configuration not stated)	278 mg/kg and 157 mg/kg
O=CCC1CC2CC1C1CCCC21 (configuration not stated)	500 mg/kg
CC1(C(=O)O)CC=CCC1 (configuration not stated)	2140 mg/kg
C=CC(=O)OCCCOCC	820 mg/kg
CCOC(C1=NCCCN1)c1cccc2ccccc12 (configuration not stated)	375 mg/kg

SMILES	LD50
CC(C(c1ccc(Cl)cc1)c1ccc(Cl)cc1)[N+](=O)[O-] (configuration not stated)	750 mg/kg
C/[N+]([O-])=N/CO[C@@H]1O[C@H](CO)[C@@H](O)[C@H](O)[C@H]1O	270 mg/kg
COP(=S)(OC)Oc1ccc([N+](=O)[O-])c(C(F)(F)F)c1	250 mg/kg
CN(SC(Cl)(Cl)Cl)C(=O)Oc1cccc2c1OC(C)(C)C2	125 mg/kg
CCOP(=O)(OCC)SCC(=O)NC(C)(C)C#N	3.5 mg/kg
C(=CNc1ccccc1)C=Nc1ccccc1	1130 mg/kg
O=C(Cl)C(Cl)(Cl)Cl	600 mg/kg
Cc1cc(OCCO)cc(C)c1Cl	3800 mg/kg
C=C(C)C(=O)OCCSCC	7400 mg/kg
CC(=O)N(CCN(C)C)n1cc(-c2ccccc2)c2ccccc21	1100 mg/kg
Nc1ccc(C(=O)Nc2ccccc2N)cc1	95 mg/kg
CC(=O)Nc1cccc2c3c([nH]c12)CCCC3	3860 mg/kg
CC(C)(N1CC1C#N)N1CC1C(N)=O (configuration not stated)	3100 mg/kg
CCCCCCNC(=O)n1cc(F)c(=O)[nH]c1=O	268 mg/kg
CNC(=O)Oc1cc([N+](C)(C)C)ccc1C	2.5 mg/kg
CON=CC1=CCCNC1	12 mg/kg
CCOP(=O)(OCC)SC(C)(C)C	127 mg/kg
c1ccc(CC2=NCCN2)cc1	1200 mg/kg
O=C(C(F)(F)Cl)C(F)(F)Cl	61 mg/kg
CCCCCCCCC=CCCCCCCCC(=O)OCC1CO1 (configuration not stated)	3520 mg/kg
Nc1c(Cl)cc(Cl)cc1C(=O)O	4120 mg/kg
CC(C)CCCC1CCC(C)(C(=O)NCC(=O)O)CC1 (configuration not stated)	10300 mg/kg
